{"source": "patent US10238685B2", "about": "“Compositions containing polymeric sulfur and uses thereof” (Johnson & Johnson Consumer Inc., priority 2015, dated 2019)", "assay_type_in_all_cases": "cell-based", "key": {"[1]": {"tested_on": "Propionibacterium acnes ATCC 6919", "test": "Antimicrobial Efficacy Test - Microcentrifuge Tube Method, P. acnes", "details": "for Log / cfu/ml / log reduction: 30 minute exposure", "method": "(§1) For efficacy studies against Propionibacterium acnes, Staphylococcus aureus, and Escherichia coli 1% test sample suspensions [Sulfur (S) Sigma or Polymeric Sulfur (Sn) IS90 from Wuxi Wanli Chemical, China] were prepared as w/v in Butterfield's Phosphate Buffer. Serial dilutions of 1:10 were performed v/v for lower concentrations. Aliquots were then pipetted into microcentrifuge tube for exposure to test organism. Concentrations of 10% and 5% for testing against Aspergillus brasiliensis were weighed and diluted directly in microcentrifuge tubes. Each test organism was standardized to concentration of 10E6 cfu/ml. Test sample was inoculated as 1:10 (0.1 ml inoculum to 0.9 ml sample) for final concentration of 10E5 cfu/ml sample. Buffer control sample was included and used to calculate log reduction for each test sample. After inoculation, study tubes were placed at 37° C. (±2° C.), shaking at 1000 rpm for set exposure time (30 minutes, 1 hour or 3 hours). At completion of exposure time, each tube was centrifuged for 10 seconds to settle test material out of suspension. Aliquot of fluid was removed, serial diluted and plated for recovery of viable organisms. Each organism was plated on appropriate media and incubated at proper temperature and length of time before counting recoveries."}, "[2]": {"tested_on": "Staphylococcus aureus ATCC 6538", "test": "Antimicrobial Efficacy Test - Microcentrifuge Tube Method, S. aureus", "details": "for Log / cfu/ml / log reduction: 60 minute exposure", "method": "as §1"}, "[3]": {"tested_on": "Escherichia coli ATCC 8739", "test": "Antimicrobial Efficacy Test - Microcentrifuge Tube Method, E. coli", "details": "for Log / cfu/ml / log reduction: 30 minute exposure", "method": "as §1"}, "[4]": {"tested_on": "Aspergillus brasiliensis ATCC 16404", "test": "Antimicrobial Efficacy Test - Microcentrifuge Tube Method, A. brasiliensis", "details": "for Log / cfu/ml / log reduction: 3 hour exposure", "method": "as §1"}, "[5]": {"tested_on": "IL-22-induced IL-8 cytokine release", "test": "IL-22-induced IL-8 cytokine release in normal human epidermal keratinocytes", "method": "The anti-inflammatory potential of polymeric sulfur (Sn) and of regular sulfur (S) were evaluated in-vitro in human primary epidermal cell cultures. Normal human epidermal keratinocytes were purchased from Promocell (Heidelberg, Germany). The cells were plated in 24-well tissue culture treated plates at a density of 30,000 cells/well in Lonza KGM-Gold Bullet Kit without hydrocortisone (Lonza, Walkersville, Md.). After 48 hours, cells were treated with the actives described below: Polymeric form of sulfur (IS-90, Wuxi Wanli Chemical, China) and the regular form of sulfur (Sigma-Aldrich, St Louis, Mo., USA) at indicated concentrations, either in the presence or absence of the pro-inflammatory cytokine IL-22 (R&D Systems, Minneapolis, Minn.) 20 ng/ml. Following the treatment period of 24 hrs, the cell culture media supernatants were collected and analyzed for IL-8 cytokine release using MILLIPLEX®MAP kit (Millipore Corp., Billerica, Mass.)."}, "[6]": {"tested_on": "IL-1α pro-inflammatory cytokine release", "test": "IL-1α cytokine release in human skin equivalents (EPI 200 HCF-PRF)", "method": "The potential to induce the pro-inflammatory cytokine release IL1-a by either the polymeric sulfur (Sn) and of regular sulfur (S) were evaluated in human skin equivalents. Human skin equivalents (EPI 200 HCF-PRF), multilayer and differentiated epidermis consisting of normal human epidermal keratinocytes, were purchased from MatTek (Ashland, Mass.). Upon receipt, skin equivalents were incubated for 24 hours at 37° C. in maintenance medium without hydrocortisone. Equivalents were topically treated (0.1%, 1% and 10%) with either polymeric sulfur (IS-90, Wuxi Wanli Chemical, China) or regular sulfur (S, Sigma-Aldrich, St Louis, Mo., USA) in 70% ethanol/30% propylene glycol vehicle, and compared to either vehicle alone used as negative control, or to the 10 mM SDS used as positive control. Equivalents were incubated for 48 hours at 37° C. with maintenance medium then supernatants were analyzed for IL-1α pro-inflammatory cytokine release using MILLIPLEX®MAP kit (Millipore Corp., Billerica, Mass.)."}, "IL-8 cytokine release": {"tested_on": "IL-8 cytokine release", "test": "IL-8 cytokine release in normal human epidermal keratinocytes", "method": "The irritation/inflammatory/mildness potential of polymeric sulfur (Sn) and of regular sulfur (S) were evaluated in-vitro in human primary cell cultures. Normal human epidermal keratinocytes were purchased from Promocell (Heidelberg, Germany). The cells were plated in 24-well tissue culture treated plates at a density of 30,000 cells/well in Lonza KGM-Gold BulletKit without hydrocortisone (Lonza, Walkersville, Md., USA). After 48 hours, cells were treated with the actives described below: Polymeric form of sulfur (Wuxi Wanli Chemical, China) and the regular form of sulfur (Sigma-Aldrich, St Louis, Mo.) at indicated concentrations for 24 hours, following which supernatants were collected and analyzed for IL-8 and IL-1α cytokine release using MILLIPLEX®MAP kit (Millipore Corp., Billerica, Mass.)."}}, "note": "Read-outs that look alike come from different tables or passages of the source.", "data": [{"compound": "S1SSSSSSS1", "note": "[S, Sulfur]", "values": [{"measurement": "Log", "setting": "[1]; 0.001%", "result": 5.3}, {"measurement": "cfu/ml", "setting": "[1]; 0.001%", "result": "2.0E+05", "unit": "cfu/ml"}, {"measurement": "log reduction", "setting": "[1]; 0.001%", "result": 0.1}, {"measurement": "Log", "setting": "[1]; 0.01%", "result": 5.3}, {"measurement": "cfu/ml", "setting": "[1]; 0.01%", "result": "1.9E+05", "unit": "cfu/ml"}, {"measurement": "log reduction", "setting": "[1]; 0.01%", "result": 0.1}, {"measurement": "Log", "setting": "[1]; 0.1%", "result": 5.3}, {"measurement": "cfu/ml", "setting": "[1]; 0.1%", "result": "1.8E+05", "unit": "cfu/ml"}, {"measurement": "log reduction", "setting": "[1]; 0.1%", "result": 0.1}, {"measurement": "Log", "setting": "[1]; 1% w/v", "result": 5.2}, {"measurement": "cfu/ml", "setting": "[1]; 1% w/v", "result": "1.6E+05", "unit": "cfu/ml"}, {"measurement": "log reduction", "setting": "[1]; 1% w/v", "result": 0.2}, {"measurement": "antimicrobial efficacy, conclusion", "setting": "[1]; at 0.01% or 0.001%", "result": "Neither form was efficacious"}, {"measurement": "Log", "setting": "[2]; 0.001%", "result": 4.0}, {"measurement": "cfu/ml", "setting": "[2]; 0.001%", "result": "9.1E+03", "unit": "cfu/ml"}, {"measurement": "log reduction", "setting": "[2]; 0.001%", "result": 1.4}, {"measurement": "Log", "setting": "[2]; 0.01%", "result": 4.0}, {"measurement": "cfu/ml", "setting": "[2]; 0.01%", "result": "1.0E+04", "unit": "cfu/ml"}, {"measurement": "log reduction", "setting": "[2]; 0.01%", "result": 1.4}, {"measurement": "Log", "setting": "[2]; 0.1%", "result": 3.5}, {"measurement": "cfu/ml", "setting": "[2]; 0.1%", "result": "3.0E+03", "unit": "cfu/ml"}, {"measurement": "log reduction", "setting": "[2]; 0.1%", "result": 1.9}, {"measurement": "Log", "setting": "[2]; 1% w/v", "result": 5.3}, {"measurement": "cfu/ml", "setting": "[2]; 1% w/v", "result": "2.1E+05", "unit": "cfu/ml"}, {"measurement": "log reduction", "setting": "[2]; 1% w/v", "result": 0.1}, {"measurement": "antimicrobial efficacy, conclusion", "setting": "[2]; at 0.1%", "result": "the forms were equivalent"}, {"measurement": "Log", "setting": "[3]; 0.001%", "result": 6.1}, {"measurement": "cfu/ml", "setting": "[3]; 0.001%", "result": "1.3E+06", "unit": "cfu/ml"}, {"measurement": "log reduction", "setting": "[3]; 0.001%", "result": 0.1}, {"measurement": "Log", "setting": "[3]; 0.01%", "result": 6.1}, {"measurement": "cfu/ml", "setting": "[3]; 0.01%", "result": "1.3E+06", "unit": "cfu/ml"}, {"measurement": "log reduction", "setting": "[3]; 0.01%", "result": 0.1}, {"measurement": "Log", "setting": "[3]; 0.1%", "result": 6.1}, {"measurement": "cfu/ml", "setting": "[3]; 0.1%", "result": "1.4E+06", "unit": "cfu/ml"}, {"measurement": "log reduction", "setting": "[3]; 0.1%", "result": 0.1}, {"measurement": "Log", "setting": "[3]; 1% w/v", "result": 6.2}, {"measurement": "cfu/ml", "setting": "[3]; 1% w/v", "result": "1.5E+06", "unit": "cfu/ml"}, {"measurement": "log reduction", "setting": "[3]; 1% w/v", "result": 0.0}, {"measurement": "antimicrobial efficacy, conclusion", "setting": "[3]; at 0.1%, 0.01% or 0.001%", "result": "Neither form was efficacious"}, {"measurement": "Log", "setting": "[4]; 0.1%", "result": 5.5}, {"measurement": "cfu/ml", "setting": "[4]; 0.1%", "result": "3.2E+05", "unit": "cfu/ml"}, {"measurement": "log reduction", "setting": "[4]; 0.1%", "result": "−0.1"}, {"measurement": "Log", "setting": "[4]; 1%", "result": 5.3}, {"measurement": "cfu/ml", "setting": "[4]; 1%", "result": "2.0E+05", "unit": "cfu/ml"}, {"measurement": "log reduction", "setting": "[4]; 1%", "result": 0.1}, {"measurement": "Log", "setting": "[4]; 5%", "result": 5.5}, {"measurement": "cfu/ml", "setting": "[4]; 5%", "result": "2.9E+05", "unit": "cfu/ml"}, {"measurement": "log reduction", "setting": "[4]; 5%", "result": "−0.1"}, {"measurement": "Log", "setting": "[4]; 10%", "result": 5.4}, {"measurement": "cfu/ml", "setting": "[4]; 10%", "result": "2.8E+05", "unit": "cfu/ml"}, {"measurement": "log reduction", "setting": "[4]; 10%", "result": 0.0}, {"measurement": "antimicrobial efficacy, conclusion", "setting": "[4]; at 1% or 0.01%", "result": "Neither was efficacious"}, {"measurement": "IL-8 release vs untreated control cells in presence of IL-22 (FIG. 1)", "setting": "[5]; 0.01% up to 3%, IL-22 20 ng/ml, 24 hrs", "result": "did induce significantly the stimulation of the pro-inflammatory cytokine IL-8"}, {"measurement": "anti-inflammatory potential in human primary epidermal cells in vitro", "setting": "[5]; composition, measured per procedure of the Examples", "result": "greater than 220 pg/ml"}, {"measurement": "stimulation of pro-inflammatory cytokine IL-1α (FIG. 2)", "setting": "[6]; topical 0.1%, 1% and 10% in 70% ethanol/30% propylene glycol, 48 hours", "result": "did induce the stimulation of the pro-inflammatory cytokine IL-1α in a dose-dependent manner"}, {"measurement": "stimulation of pro-inflammatory cytokine IL-8 vs untreated control cells (FIG. 3)", "setting": "IL-8 cytokine release; 0.01% up to 3%, 24 hours, no IL-22", "result": "did induce significantly the stimulation of the pro-inflammatory biomarker cytokine IL-8"}]}, {"compound": "Polymeric Sulfur [Sn]", "values": [{"measurement": "stimulation of pro-inflammatory cytokine IL-1α (FIG. 2)", "setting": "[6]", "result": "did not induce the production of IL-1α to the same extent"}, {"measurement": "stimulation of pro-inflammatory cytokine IL-8 vs untreated control cells (FIG. 3)", "setting": "IL-8 cytokine release", "result": "showed significantly lower stimulation of the pro-inflammatory cytokine IL-8"}]}]}
